Source: PMC10096064, “Naphth[1,2-d]imidazoles Bioactive from β-Lapachone: Fluorescent Probes and Cytotoxic Agents to Cancer Cells” (Molecules, 2023)
Entries after “also recorded” stand apart in the source; their conditions may differ. Like-named read-outs stand apart in the source and are kept apart here. Marks after values point to notes of the source that are not given here.

Legend:
[1] = Fluorescence emission spectrum and Stokes shift; type: physicochemical; settings: for ΔST (Stokes shift): difference between absorption and emission wavelengths, solvent per compound as in Table 1; for fluorescence emission intensity / λemis (emission wavelength): excitation at 345 nm, 20 μM; for λemis (emission wavelength): solvent per compound: IM1, IM3, IM4, IM5 CH2Cl2, IM2 DMSO, IM6 CH3OH, IM7 hexane, DAPI H2O
Protocol: The stock solutions were diluted to a concentration of 20 µM, and readings used the excitation wavelength of 345 nm for all compounds. […]

[2] = UV-vis absorption spectra and molar absorptivity coefficient; type: physicochemical; settings: 20 μM
Protocol: A stock solution in dichloromethane (CH2Cl2) of each compound was prepared at a concentration of 4000 µM. From the stock solution, solutions were prepared at a concentration of 20 µM of each compound in four different solvents: hexane, CH2Cl2, dimethyl sulfoxide (DMSO), and methanol (CH3OH). Then, measurement in the range of 190 to 800 nm was performed, with the wavelengths of maximum absorption (λmax) of the compounds in the different solvents shown in Table S1 and Figure S8.
The molar absorptivity coefficient (εAbs) was determined using an equation applied by Lambert–Beer (εAbs = A/LxC, where A—maximum absorbance; L—the optical path of the cuvette used (1 cm); and C—concentration of the analyzed sample in M).

L929 = experiment: MTT cytotoxicity assay, nontumor murine fibroblast L929; type: cell-based; settings: Mus musculus, 72 h exposure
Protocol: (§1) The cytotoxic activity of the naphth[1,2-d]imidazoles IM1–IM7 was assessed through colorimetric MTT assay. The ability of these compounds to inhibit cell growth against human glioblastoma (SNB-19), human colorectal carcinoma (HCT-116), and human promyelocytic leukemia (HL-60) cell lines was evaluated. The IC50 was determined for those compounds, returning a percentage inhibition of cell growth above 75% in at least two tested cell lines. […] Doxorubicin was used as the positive control, and cytotoxic activities were expressed as IC50 for all the naphth[1,2-d]imidazoles in Table 2.
(§2) Brain tumor (SNB-19), human colorectal carcinoma (HCT-116), and human promyelocytic leukemia (HL-60) cells were obtained from the National Cancer Institute (NCI) (Bethesda, MD, USA). The L929 cells (mouse fibroblast L cells NCTC clone 929) were purchased from the American Type Culture Collection (Manassas, VA, USA). The cells were grown on RPMI 1640 medium supplemented with 10% fetal bovine serum and 1% antibiotics (penicillin/streptomycin) at 37 °C with 5% CO2.
(§3) Cytotoxic potential of the naphth[1,2-d]imidazoles IM1–IM7 was assessed after 72 h of exposure to the tumor cell lines of human SNB-19, HCT-116, HL-60, and normal cell line L929. Cells were plated in 96-well plates (0.7 × 10^5 cells/well for SNB-19, 0.3 × 10^6 cells/well for HCT-116, and 0.3 × 10^6 cells/well for HL-60). Compounds were dissolved with DMSO at concentrations in the 0.078–10 μg.mL^−1 range. Doxorubicin (0.001–1.10 μM) was used as the positive control, and negative control groups received the same amount of vehicle (DMSO). The cell viability was determined by the reduction of the yellow dye 3-(4,5-dimethyl-2-thiazol)-2,5-diphenyl-2H-tetrazolium bromide (MTT) to a blue formazan product. At the end of the incubation time (69 h), the plates were centrifuged, and the medium was replaced with fresh medium (200 μL) containing 0.5 mg/mL of MTT. Three hours later, the MTT formazan product was dissolved in DMSO (150 μL), and the absorbance was measured using a multi-plate reader (Spectra Count, Packard, ON, Canada). The drug effect was quantified as the percentage of control absorbance of the reduced dye at 550 nm. All experiments were performed in three independent assays, and the half maximal inhibitory concentration (IC50) and their 95% confidence intervals were achieved by nonlinear regression.

HL-60 = experiment: MTT cytotoxicity assay, human promyelocytic leukemia HL-60; type: cell-based; settings: for IC50: Homo sapiens, HL-60, 72 h exposure, MTT, 95% confidence interval in brackets; for SI HL-60 (selectivity index): ratio IC50 L929 / IC50 HL-60
Protocol: as §1, §2, §3

SNB-19 = experiment: MTT cytotoxicity assay, human glioblastoma SNB-19; type: cell-based; settings: for IC50: Homo sapiens, SNB-19, 72 h exposure, MTT, 95% confidence interval in brackets; for SI SNB-19 (selectivity index): ratio IC50 L929 / IC50 SNB-19
Protocol: as §1, §2, §3

HCT-116 = experiment: MTT cytotoxicity assay, human colorectal carcinoma HCT-116; type: cell-based; settings: for IC50: Homo sapiens, HCT-116, 72 h exposure, MTT, 95% confidence interval in brackets; for SI HCT-116 (selectivity index): ratio IC50 L929 / IC50 HCT-116
Protocol: as §1, §2, §3

[3] = set-up: method as in PMID 25995830, PMID 20460521; settings: drawback limiting clinical applications; cited from earlier work
[4] = cited from earlier work
[5] = solvent per compound: IM1, IM3, IM4, IM5 CH2Cl2, IM2 DMSO, IM6 CH3OH, IM7 hexane

For `CC1(C)CCc2c(c3ccccc3c3nc(-c4ccc(O)cc4)[nH]c23)O1` [IM4, 4,5-dihydro-6,6-dimethyl-6H-2-(4-hidroxyphenyl)-pyran[b-4,3]naphth[1,2-d]imidazole], the “ΔST (Stokes shift)” value [1] was 49 nm, the fluorescence emission intensity [1] was 1.36 × 10^6 au and the “λemis (emission wavelength)” value [1] was 393 nm. For the same compound, the “εAbs (molar absorptivity coefficient)” value [2] was 14800 M⁻¹ cm⁻¹, the “εAbs (molar absorptivity coefficient)” value [2, 5] was 1.48 10^4 M^−1cm^−1 and the λmax [2, 5] was 344 nm. For the same compound, the IC50 (L929) was greater than 363 µM, the IC50 (HL-60) was 8.71 µM and the “SI HL-60 (selectivity index)” value (HL-60) was greater than 41.70. For the same compound, the IC50 (SNB-19) was 31.9 µM, the “SI SNB-19 (selectivity index)” value (SNB-19) was greater than 11.38 and the IC50 (HCT-116) was 23 µM. The “SI HCT-116 (selectivity index)” value (HCT-116) was greater than 15.76.
In the case of `CC1(C)CCc2c(c3ccccc3c3nc(-c4ccc([N+](=O)[O-])cc4)[nH]c23)O1` [IM6, 4,5-dihydro-6,6-dimethyl-6H-2-(4-nitrophenyl)-pyran[b-4,3]naphth[1,2-d]imidazole], the “λemis (emission wavelength)” value [1] is reported as 391 nm, the “εAbs (molar absorptivity coefficient)” value [2, 5] is reported as 1.85 10^4 M^−1cm^−1 and the λmax [2, 5] is reported as 411 nm. It also gave a melting point of 259 to 260 °C, an IC50 (L929) of 152 µM and an IC50 (HL-60) of 13.7 µM. For the same compound, the “SI HL-60 (selectivity index)” value (HL-60) was 11.09, the IC50 (SNB-19) was 22.3 µM and the “SI SNB-19 (selectivity index)” value (SNB-19) was 6.81. The IC50 (HCT-116) was 21.1 µM and the “SI HCT-116 (selectivity index)” value (HCT-116) was 7.18.
In the case of `CC1(C)CCc2c(c3ccccc3c3nc(-c4cccc5ccccc45)[nH]c23)O1` [IM3, 4,5-dihydro-6,6-dimethyl-6H-2-(naphthalenyl)-pyran[b-4,3]naphth[1,2-d]imidazole], the “ΔST (Stokes shift)” value [1] is reported as 103 nm, the fluorescence emission intensity [1] is reported as 1.41 × 10^6 au and the “λemis (emission wavelength)” value [1] is reported as 457 nm. For the same compound, the “εAbs (molar absorptivity coefficient)” value [2] was 15700 M⁻¹ cm⁻¹, the “εAbs (molar absorptivity coefficient)” value [2, 5] was 1.57 10^4 M^−1cm^−1 and the λmax [2, 5] was 354 nm. The “cell growth inhibition / cytotoxicity (in words)” value (HL-60; HL-60, MTT, IC50 not calculated) was “low growth inhibition; also recorded: low cytotoxicity”, the “cell growth inhibition / cytotoxicity (in words)” value (SNB-19; SNB-19, MTT, IC50 not calculated) was “low growth inhibition; also recorded: low cytotoxicity” and the “cell growth inhibition / cytotoxicity (in words)” value (HCT-116; HCT-116, MTT, IC50 not calculated) was “low growth inhibition; also recorded: low cytotoxicity”.
For `CC1(C)CCC2=C(O1)c1ccccc1C(=O)C2=O` [β-lapachone, β-Lapachone], the water solubility [3] is given as “low”.
With `CC1(C)CCc2c(c3ccccc3c3nc(-c4ccccc4[N+](=O)[O-])[nH]c23)O1` [IM7, 4,5-dihydro-6,6-dimethyl-6H-2-(2-nitrophenyl)-pyran[b-4,3]naphth[1,2-d]imidazole] the “ΔST (Stokes shift)” value [1] was 48 nm, the “λemis (emission wavelength)” value [1] was 385 nm and the “εAbs (molar absorptivity coefficient)” value [2, 5] was 1.35 10^4 M^−1cm^−1. It also gave a λmax [2, 5] of 337 nm, a melting point of 139 to 141 °C and an IC50 (HL-60) of 14.9 µM. The IC50 (SNB-19) was greater than 67 µM and the IC50 (HCT-116) was 35.1 µM.
For `CN(C)c1ccc(-c2nc3c([nH]2)c2c(c4ccccc43)OC(C)(C)CC2)cc1` [IM5, 4,5-dihydro-6,6-dimethyl-6H-2-(4-dimethylaminophenyl)-pyran[b-4,3]naphth[1,2-d]imidazole], the “ΔST (Stokes shift)” value [1] was 54 nm, the fluorescence emission intensity [1] was 7.04 × 10^5 au and the “λemis (emission wavelength)” value [1] was 422 nm. The “εAbs (molar absorptivity coefficient)” value [2] was 27100 M⁻¹ cm⁻¹, the “εAbs (molar absorptivity coefficient)” value [2, 5] was 2.71 10^4 M^−1cm^−1 and the λmax [2, 5] was 368 nm. For the same compound, the melting point was 182 to 184 °C, the IC50 (L929) was 52.8 µM and the IC50 (HL-60) was 12.3 µM. For the same compound, the “SI HL-60 (selectivity index)” value (HL-60) was 4.28, the IC50 (SNB-19) was 21.1 µM and the “SI SNB-19 (selectivity index)” value (SNB-19) was 2.51. The IC50 (HCT-116) was 44.1 µM and the “SI HCT-116 (selectivity index)” value (HCT-116) was 1.20.
In the case of `CC1(C)CCc2c(c3ccccc3c3nc[nH]c23)O1` [IM1, 4,5-dihydro-6,6-dimethyl-6H-2-pyran[b-4,3]naphth[1,2-d]imidazole], the “ΔST (Stokes shift)” value [1] is reported as 50 nm, the fluorescence emission intensity [1] is reported as 6.90 × 10^4 au and the “λemis (emission wavelength)” value [1] is reported as 366 nm. For the same compound, the “εAbs (molar absorptivity coefficient)” value [2, 5] was 0.61 10^4 M^−1cm^−1, the λmax [2, 5] was 316 nm and the melting point was 255 to 259 °C. The IC50 (L929) was 186 µM, the IC50 (HL-60) was 24.2 µM and the “SI HL-60 (selectivity index)” value (HL-60) was 7.68. For the same compound, the IC50 (SNB-19) was 46.4 µM, the “SI SNB-19 (selectivity index)” value (SNB-19) was 4.00 and the IC50 (HCT-116) was 62.1 µM. The “SI HCT-116 (selectivity index)” value (HCT-116) was 3.00.
With `COc1cccc2c1C(=O)c1c(O)c3c(c(O)c1C2=O)C[C@@](O)(C(=O)CO)C[C@@H]3O[C@H]1C[C@H](N)[C@H](O)[C@H](C)O1` [Doxorubicin, reference compound] the IC50 (L929) was 3.16 µM, the IC50 (HL-60) was 0.04 µM and the “SI HL-60 (selectivity index)” value (HL-60) was 79.00. For the same compound, the IC50 (SNB-19) was 2.21 µM, the “SI SNB-19 (selectivity index)” value (SNB-19) was 1.43 and the IC50 (HCT-116) was 0.2 µM. For the same compound, the “SI HCT-116 (selectivity index)” value (HCT-116) was 15.80.
In the case of `N=C(N)c1ccc(-c2cc3ccc(C(=N)N)cc3[nH]2)cc1` [DAPI, 4′,6-diamidino-2-phenylindole, reference compound], the fluorescence emission intensity [1] is listed as 1.13 × 10^5 au, the “λemis (emission wavelength)” value [1] is listed as 452 nm and the λmax ([4]; H2O, ref Farahat et al. (2017) [32]) is listed as 343 ^d nm. For the same compound, the λabs ([4]; general characteristic of DAPI stated in text, ref not given) was 340 nm.
In the case of `CC1(C)CCc2c(c3ccccc3c3nc(-c4ccccc4)[nH]c23)O1` [IM2, 4,5-dihydro-6,6-dimethyl-6H-2-(phenyl)-pyran[b-4,3]naphth[1,2-d]imidazole], the “ΔST (Stokes shift)” value [1] is reported as 60 nm, the fluorescence emission intensity [1] is reported as 2.49 × 10^6 au and the “λemis (emission wavelength)” value [1] is reported as 402 nm. The “εAbs (molar absorptivity coefficient)” value [2] was 24300 M⁻¹ cm⁻¹, the “εAbs (molar absorptivity coefficient)” value [2, 5] was 2.43 10^4 M^−1cm^−1 and the λmax [2, 5] was 342 nm. It also gave a melting point of 278 to 279 °C, an IC50 (L929) of 105 µM and an IC50 (HL-60) of 29.9 µM. The “SI HL-60 (selectivity index)” value (HL-60) was 3.50, the IC50 (SNB-19) was 27 µM and the “SI SNB-19 (selectivity index)” value (SNB-19) was 3.89. The IC50 (HCT-116) was 21.7 µM and the “SI HCT-116 (selectivity index)” value (HCT-116) was 4.83.
